According to PubChem BioAssay AID743267 (Broad Institute, 2014):

What follows are compounds tested on human bronchial epithelial cells, CFTR corrector, plate reader (assay: CFTR ΔF508 corrector activity in bronchial cells, dose response, human bronchial epithelial cells, plate reader, cherry-pick, two tests (AID 743267)). Details: measured here: test 1 replicate run.

Question: With C[C@@H]1CN([C@@H](C)CO)C(=O)Cc2cc(N(C)C)ccc2O[C@@H]1CN(C)Cc1ccc(C(=O)Nc2ccccc2N)cc1 as the compound, how does the AC50 read?
Answer: 10.3 µM

Question: With COc1ccc(NC(=O)N(C)C[C@@H]2Oc3cc(C#CCC(C)C)ccc3S(=O)(=O)N([C@H](C)CO)C[C@@H]2C)cc1 as the compound, how does the AC50 read?
Answer: 16 µM

Question: For N#Cc1ccc(-c2ccc3c(c2)[C@H]2[C@H](CCN2S(=O)(=O)c2ccccc2F)[C@@H](CO)N3)cc1, which AC50 is on record?
Answer: 6.96 µM

Question: C[C@H]1CCCCO[C@@H](CN(C)C(=O)C2CCCCC2)[C@@H](C)CN([C@@H](C)CO)C(=O)c2cc(NC(=O)Nc3ccc(C(F)(F)F)cc3)ccc2O1 was tested. Which AC50 did it give?
Answer: 15.8 µM

Question: How did the AC50 turn out when O=C(Cc1ccccc1)N1CC(=O)N2[C@H](CO)[C@@H](c3ccc(-c4ccccc4)cc3)[C@@H]2C1 was run?
Answer: 24.6 µM

Question: With COc1ccc(CNC(=O)c2cc3c(c(-c4cccc(-c5ccc(C#N)cc5)c4)n2)[C@@H](CCO)N([S@](=O)C(C)(C)C)C3)cc1 as the compound, how does the AC50 read?
Answer: > 50 µM

Question: For O=C(C1CC1)N1CC(=O)N2[C@H](CO)[C@@H](c3ccc(-c4ccccc4F)cc3)[C@@H]2C1, which AC50 is on record?
Answer: 8.99 µM

Question: COc1cccc(S(=O)(=O)N2C[C@@H]3N[C@H](C2)C3c2ccc(-c3cccc(C)c3)cc2)c1 (some centres not stated) was tested. Which AC50 did it give?
Answer: 16 µM

Question: CN1c2ccc(-c3ccc(F)cc3)cc2[C@H]2[C@H](CCN2S(=O)(=O)c2cccc(F)c2)[C@@H]1CO was tested. Which AC50 did it give?
Answer: 7.66 µM

Same assay, conditions: measured here: test 2 replicate run

Question: CC(=O)N1CCc2cc(S(=O)(=O)N3c4ccccc4CC3C)ccc21 (configuration not stated) was tested. Which AC50 did it give?
Answer: 6.73 µM

Question: With CCC(=O)NC(c1ccc(C)cc1)c1ccc2cccnc2c1O (configuration not stated) as the compound, how does the AC50 read?
Answer: > 50 µM

Question: With Cc1cc(Br)cc(/C=N/NC(=O)c2ccc3c(c2)OCO3)c1O as the compound, how does the AC50 read?
Answer: 6.69 µM

Question: Which AC50 does the source give for CC(C)Oc1ncnc2c1[nH]c1ccccc12 here?
Answer: 9.38 µM

Question: With Fc1ccc(/C=N/NC(=S)Nc2ccc(Cl)cc2Cl)cc1 as the compound, how does the AC50 read?
Answer: 32.2 µM

Question: Which AC50 does the source give for CCCCN1C(=O)/C(=C/C=C2\Oc3ccccc3N2CC)SC1=S here?
Answer: 9.56 µM

Question: OC[C@@H]1CN(Cc2ccc(-c3ccccc3)cc2)C[C@H](n2cnc3c(NC4CC4)ncnc32)O1 was tested. Which AC50 did it give?
Answer: > 50 µM

Question: How did the AC50 turn out when CC(C)Nc1ccc(Nc2ccnc3cc4ccccc4cc23)cc1 was run?
Answer: 7.34 µM

Question: With COc1cc2c(c(Br)c1N)-c1cc(Br)c(N)cc1C2=O as the compound, how does the AC50 read?
Answer: > 50 µM

Question: How did the AC50 turn out when Cc1cc(C(=O)N/N=C/c2ccc([N+](=O)[O-])cc2)c2ccccc2n1 was run?
Answer: 3.96 µM

Question: With Nc1sc(-c2ccccc2)cc1-c1n[nH]c(=S)n1C1CCCCC1 as the compound, how does the AC50 read?
Answer: 2.45 µM

Question: COc1cc(Nc2c3c(nc4ccccc24)CCC3)cc(OC)c1OC was tested. Which AC50 did it give?
Answer: 1.97 µM

Question: Which AC50 does the source give for NC(=O)N=Nc1c2[nH]c3ccccc3nc-2c2ccccc12 here?
Answer: 8.41 µM

Question: How did the AC50 turn out when CCOC(=O)c1ccc(N2CCOCC2)c(NC(=O)c2c(-c3ccccc3)noc2C)c1 was run?
Answer: 4.89 µM

Question: With Nc1c2ccccc2nc2ccccc12 as the compound, how does the AC50 read?
Answer: 2.62 µM

Question: Which AC50 does the source give for COc1cc(NC(=O)N2CCNC2=O)cc(C(=O)Nc2cccc(C(F)(F)F)c2)c1 here?
Answer: 5.11 µM

Question: COc1ccc(CCNc2c3ccccc3nc3ccccc23)cc1OC was tested. Which AC50 did it give?
Answer: 3.9 µM

Question: How did the AC50 turn out when CCN1/C(=C/c2ccc3cc(C)cc(C)c3[n+]2CC)Sc2cc(C)ccc21 was run?
Answer: 12.4 µM

Question: Which AC50 does the source give for O=S1(=O)CCN(C(CO)c2ccccc2)CC1 (configuration not stated) here?
Answer: 43.3 µM

Question: For Clc1cccc(-c2ccc(C=Nc3ccc(N4CCOCC4)cc3)o2)c1Cl, which AC50 is on record?
Answer: > 50 µM

Question: With CC(=O)N1CCc2c(sc(NC(=O)c3ccc4c(c3)OCCO4)c2C#N)C1 as the compound, how does the AC50 read?
Answer: 7.74 µM

Question: Which AC50 does the source give for CC(=O)Nc1sc2c(c1-c1nc3ccccc3s1)CN(C(C)C)CC2 here?
Answer: 1.43 µM

Question: For COc1cc(-c2noc(C)c2C#Cc2ccccn2)cc(OC)c1OC, which AC50 is on record?
Answer: 0.747 µM

Question: Which AC50 does the source give for O=c1cc(-c2ccc(O)c(O)c2)oc2cc(O)cc(O)c12 here?
Answer: 29.3 µM

Question: With CCOc1ccc(Cl)cc1C1=CC(=O)C[C@H](c2ccc(OC)cc2)C1 as the compound, how does the AC50 read?
Answer: 1.92 µM

Question: How did the AC50 turn out when CCOc1ccc(NC(=O)CN(c2ccc([N+](=O)[O-])cc2)S(=O)(=O)c2ccccc2)cc1 was run?
Answer: 18.1 µM

Question: CCN(CC)CCCNc1ccc2ncn3c4ccc(O)cc4c(=O)c1c23 was tested. Which AC50 did it give?
Answer: 1.8 µM

Question: For Cc1cc(C)c(/C=C2\C(=O)Nc3ccccc32)[nH]1, which AC50 is on record?
Answer: 10.8 µM

Question: For CCOC1=C/C(=C/c2c(N)n3nc(S(=O)(=O)CC)sc3nc2=O)C=CC1=O, which AC50 is on record?
Answer: 24.9 µM

Question: With CN[C@H]1CCc2cc(OC)c(OC)c(OC)c2-c2ccc(N(C)CC(OC)OC)c(=O)cc21 as the compound, how does the AC50 read?
Answer: 3.25 µM

Question: With O=C(N/N=C/c1c(O)ccc2ccccc12)C(=O)N1CCCC1 as the compound, how does the AC50 read?
Answer: 12.6 µM

Question: For CO[C@@]12[C@@H]3N[C@@H]3CN1C1=C(C(=O)C(N)=C(C)C1=O)[C@@H]2COC(N)=O, which AC50 is on record?
Answer: 11.5 µM

Question: Which AC50 does the source give for COc1cc(OC)c(-c2c3cc(O)c(=O)cc-3oc3cc(O)c(O)cc23)cc1OC here?
Answer: 8.08 µM

Question: Cc1cccc(NC(=S)N/N=C/c2cccc(O)c2)c1C was tested. Which AC50 did it give?
Answer: 3.86 µM

Question: With O=S(=O)(Nc1ccc(F)cc1Cl)c1ccc(-c2cnc(C3CC3)o2)cc1 as the compound, how does the AC50 read?
Answer: 2.23 µM

Question: Which AC50 does the source give for Cc1cc(C)c2nc(Cl)c(CN(Cc3ccco3)C(=O)Nc3ccccc3C)cc2c1 here?
Answer: 2.87 µM

Question: Which AC50 does the source give for COc1ccc([C@H]2C[C@H](O)[C@@H](n3cc(-c4ccc(F)cc4)nn3)CN2Cc2cccs2)cc1 here?
Answer: 16 µM

Question: How did the AC50 turn out when CCOC(=O)N1CCC(NC(=O)c2ccc3c(c2)N=C(C)c2c(C)ccc(C)c2S3)CC1 was run?
Answer: 1.67 µM

Question: For Cc1cccc(NC(=O)CN2CCN(C(=O)CN3C(=O)NC4(CC(C)CC(C)(C)C4)C3=O)CC2)c1C (configuration not stated), which AC50 is on record?
Answer: 2.69 µM

Question: CC1CCN(C(=O)c2ccc(S(=O)(=O)N3CCCC3)cc2)CC1 was tested. Which AC50 did it give?
Answer: > 50 µM

Question: With O=C(NCCOc1ccccc1F)c1cc([N+](=O)[O-])ccc1N1CCOCC1 as the compound, how does the AC50 read?
Answer: 5.95 µM

Question: With Cc1ccc2c(CN3CCN(S(=O)(=O)c4ccc(Cl)cc4)CC3)cc(=O)oc2c1C as the compound, how does the AC50 read?
Answer: 11.6 µM

Question: Which AC50 does the source give for COC(=O)c1cc2c(=O)c3ccccc3oc2nc1/C=C/N(C)C here?
Answer: 0.984 µM
